Key:
Adult dermal fibroblasts [1] = assay: Determination of collagen levels (ELISA) deposited by fibroblasts; format: cell-based; settings: for ability to stimulate collagen deposition (overall summary): absence of growth factors
Description: (§1) Adult dermal fibroblasts were grown until 95% confluent, trypsinized (2 ml trypsin plate) to prepare a single suspension of fibroblasts. These cells were diluted in DMEM (+10% FBS) media and diluted to a concentration of 25000 cells/ml. […] was placed in each well of a 96 well microplate (2500 cells/well). The fibroblasts were allowed to adhere and spread by incubating for 24 hours (at 37° C., 5% CO2 in a humidified atmosphere) at which point the media was removed and replaced with serum free DMEM+/−stimulant/sample.
(§2) The following vanadate complexes were added in quadruplicate: bpV(pic) was added to a final concentration of 8.14 and 0.81 μM, bpV(bipy) (bisperoxo(bipyridine)oxovanadate) was added to a final concentration of 178 and 17.8 μM. bpV(phen) was added to a final concentration of 12 or 0.124 μM, DMHV (bis-dimethylhydroxamido vanadate, (Me2N—O)2VO(OH)) was added to a final concentration of […]. The vanadate complexes were all obtained as the solid potassium salts from Calbiochem, Catalog numbers 203705, 322130, and 203695.
Negative control samples were untreated and positive control samples were cells treated with DMEM containing 10% FBS or 0.15 ng/ml epidermal growth factor. As a further positive control, Dephostatin (a known tyrosine protein phosphatase inhibitor obtained from Calbiochem, catalog number 263200) was added to a final concentration of 23.8 μM.
Additional experiments were performed using the phosphatase inhibitors indicated above in the presence of epidermal growth factor (0.015 ng/ml) or platelet derived growth factor (6 ng/ml).
The amount of collagen produce and deposited into the extracellular environment under each experimental condition was measured using an ELISA method. Collagen type I standards (Sigma cat no 7774, lot 32K3775) and material aspirated from the fibroblasts were coated onto 96 well plates (FALCON 3072) by incubation at 37° C. for 30 min. Non-specific sites were blocked by the addition of […] of 5% solution of bovine serum albumin (BSA) for 30 min. Each well was incubated with a monoclonal antibody against collagen used at a dilution of 1/2000 ((sigma cat no. 2456, lot 081K4897) overnight at 4° C. Samples were washed five times for 5 minutes in wash buffer (PBS+0.05% (v/v) TWEEN-20) and incubated with an HRP-conjugated second antibody against mouse IgG at a dilution of 1/10000 for 2 hr. Each well was washed five times in wash buffer. Deposited collagen was detected using the Sigma FAST method used according to the manufacturers instructions. The plates were incubated at room temperature for 30 minutes and read using a MR5000 plate reader at 450 nm.

Adult dermal fibroblasts [2] = assay: XTT cell proliferation assay; format: cell-based; settings: for amount of fibroblast proliferation (FIG. 2): 72 hrs; for ability to stimulate cell proliferation (overall summary): absence of growth factors
Description: as §1, §2
Negative control samples were untreated and positive control samples were cells treated with DMEM containing 10% FBS or 0.15 ng/ml epidermal growth factor. As a further positive control, Dephostatin (a known tyrosine protein phosphatase inhibitor obtained from Calbiochem, catalog number 263200) was added to a final concentration of 23.8 μM. […]
After 72 hrs the fluid was aspirated off and […] of the XTT labelling mixture (prepared by adding 0.1 ml Electron coupling reagent to every 5 mls of XTT labelling reagent) was added to each well. The plates were read at 450 nm, using a MR5000 plate reader at 2, 2.5 and 3.5 hrs.

bone cell = settings: in vitro; cited from earlier work
[3] = system: capillary endothelial cells; settings: in vitro; mimics fibroblast growth factor; cited from earlier work
acute wounds in rats = settings: vanadate ingestion; cited from earlier work

With CN(C)[O][V](=[O])([OH])[O]N(C)C [DMHV, bis-dimethylhydroxamido vanadate, (Me2N—O)2VO(OH)] as the molecule, how does the “amount of collagen deposited by fibroblasts (FIG. 1)” value (“amount of collagen deposited” below) (Adult dermal fibroblasts [1]; 6.4-64 μM, compared to positive control) read?
The value was “equivalent to the positive control”.

What about the “ability to stimulate collagen deposition (overall summary)” value (“ability to stimulate collagen deposition” below) (Adult dermal fibroblasts [1]) of the same molecule?
Its value is “equivalent to the DMHV positive control”.

What about the “amount of fibroblast proliferation (FIG. 2)” value (“amount … (FIG. 2)” for short) (Adult dermal fibroblasts [2]; 64 μM, compared to negative control) of the same molecule?
Its value is “greater than the negative control”.

What about the “ability to stimulate cell proliferation (overall summary)” value (from here on “ability to stimulate cell proliferation”) (Adult dermal fibroblasts [2]) of the same molecule?
The value was “equivalent to the DMHV positive control”.

Which “amount of collagen deposited” value (Adult dermal fibroblasts [1]; 23.8 μM, compared to positive control) does the source give for CN(N=O)c1cc(O)ccc1O [Dephostatin, reference compound] here?
Its value is “equivalent to the positive control”.

What about the “amount … (FIG. 2)” value (Adult dermal fibroblasts [2]; 23.8 μM, compared to negative control) of the same molecule?
Its value is “greater than the negative control”.

Which “ability to stimulate collagen deposition” value (Adult dermal fibroblasts [1]; listed as bpV (phen)) does the source give for [O-2].[O-][O-].[O-][O-].[V+5].c1cnc2c(c1)ccc1cccnc12 [bpV(phen), bisperoxo-(1,10-phenanthroline)-oxovanadate] here?
The value was “exception”.

And the “ability to stimulate collagen deposition” value (Adult dermal fibroblasts [1]; listed as bpV(Phen))?
The value was “does not enhance”.

And the “ability to stimulate cell proliferation” value (Adult dermal fibroblasts [2]; listed as bpV (Phen))?
The value was “inhibitor of proliferation”.

What about the “ability to stimulate cell proliferation” value (Adult dermal fibroblasts [2]; listed as bpV (phen)) of the same molecule?
The value was “exception”.

What about the “ability to stimulate cell proliferation” value (Adult dermal fibroblasts [2]; listed as bpV(Phen)) of the same molecule?
Its value is “does not enhance”.

For [Na+].[Na+].[Na+].[O]=[V]([O-])([O-])[O-] [vanadate, Sodium Orthovanadate], which bone cell proliferation (bone cell) is on record?
The bone cell proliferation was “stimulates”.

What about the bone collagen synthesis (bone cell) of the same molecule?
Its bone collagen synthesis is “stimulates”.

What about the “endothelial cells invade collagen matrices and organise into tubules” value [3] of the same molecule?
Its value is “stimulates endothelial cells to invade collagen matrices and organise into tubules”.

And the “gain in wound breaking strength” value (acute wounds in rats)?
Its value is “increases”.

What about the “organisation of collagen fibres during healing” value (acute wounds in rats) of the same molecule?
Its value is “better organised collagen fibres”.

Which “amount of collagen deposited” value (Adult dermal fibroblasts [1]; 8.14 μm, compared to non treated negative control and FBS and EGF positive controls) does the source give for “Bisperoxo (5-hydroxy pyridine-2-carboxyvanadate) [bpV(pic)]” here?
The value was “most effective activator of collagen deposition”.

What about the “ability to stimulate collagen deposition” value (Adult dermal fibroblasts [1]) of the same molecule?
The value was “more effective than even the 10% FBS positive control”.

What about the “amount … (FIG. 2)” value (Adult dermal fibroblasts [2]; 8.14 μM, compared to non treated negative control and FBS and EGF positive controls) of the same molecule?
Its value is “most effective activator cell proliferation”.

And the “amount of fibroblast proliferation (FIG. 3)” value (Adult dermal fibroblasts [2]; 8.14 μM, compared to non treated and vanadate at 0.1 and 0.01 mmolar)?
The value was “more effective activator of cell proliferation”.

And the “ability to stimulate cell proliferation” value (Adult dermal fibroblasts [2])?
Its value is “more effective than even the 10% FBS positive control”.

Which results are given for “bisperoxo(bipyridine)oxovanadate [bpV(bipy)]”?
amount of collagen deposited by fibroblasts (FIG. 1) (Adult dermal fibroblasts [1]; 17.8 μM, compared to positive control): equivalent to the positive control; amount of fibroblast proliferation (FIG. 2) (Adult dermal fibroblasts [2]; 17.8 μM, compared to negative control): greater than the negative control

From US20060165761A1, “Wound dressings comprising vanadate complexed with organic ligands” (priority 2002, published 2006)
